Experimental data published in the Bradley open melting point set (2014).
Values joined by “and” are separate entries in the source; they are usually repeats but may differ in a detail not shown here. Equal values may be shown once.

| SMILES | melting point |
| --- | --- |
| O=C(O)CCC(=O)c1ccc(-c2ccccc2)cc1 [Fenbufen] | 186 °C |
| CC/N=c1/nc(Cl)[nH]/c(=N\C(C)C)[nH]1 [Atrazine] | 177 °C |
| [O-][n+]1ccccc1S [Pyridine-2-thiol 1-oxide] | 70.5 °C |
| CC(C)(C)Br [2-bromo-2-methylpropane] | -16 °C |
| OC[C@H]1O[C@H](O)[C@H](O)[C@@H](O)[C@@H]1O [alpha-D-Glucopyranose] | 154 °C |
| Nc1ccc([N+](=O)[O-])cc1 [p-nitroaniline] | 150 °C |
| CCC1OC(=O)C(C)C(OC2CC(C)(OC)C(O)C(C)O2)C(C)C(OC2OC(C)CC(N(C)C)C2O)C(C)(O)CC(C)C(=O)C(C)C(O)C1(C)O (stereo unspecified) [erythromycin] | 135 °C |
| c1cc2cccc3c4cccc5cccc(c(c1)c23)c54 [perylene] | 277 °C and 278 °C (2×) |
| NCCNCCNCCNCCN | -40 °C |
| Brc1cccnc1 [3-bromopyridine] | -27 °C |
| COc1cc(Cl)ccc1C(=O)O [4-chloro-2-methoxybenzoic acid] | 147 °C |
| O=C(O)c1ccco1 [furoic acid] | 134 °C |
| CS(=O)(=O)Cl [methanesulfonyl chloride] | -33 °C |
| CCCOC(=O)c1ccc(O)cc1 [propylparaben] | 97 °C |
| CCBr [Bromoethane] | -119 °C |
| Brc1ccccc1-c1ccccc1 [2-bromobiphenyl] | 2 °C |
| Clc1cccc2ccccc12 [1-chloronaphthalene] | -8 °C |
| CCOC(=O)c1ccc(N)cc1 [benzocaine] | 92 °C |
| Clc1cc(-c2ccccn2)nc(-c2ccccn2)c1 [4'-chloro-2,2':6',2''-terpyridine] | 150 °C |
| O=Cc1ccc2c(c1)OCCO2 [1,4-benzodioxane-6-carboxaldehyde] | 50 °C |
| Nc1nc2ccc([N+](=O)[O-])cc2s1 [2-amino-6-nitrobenzothiazole] | 248 °C |
| O=C1OC(=O)c2c(Cl)c(Cl)c(Cl)c(Cl)c21 [4,5,6,7-Tetrachloro-2-benzofuran-1,3-dione] | 256 °C |
| O=Cc1c(Cl)cccc1Cl [2,6-dichlorobenzaldehyde] | 71 °C and 71.5 °C |
| NS(N)(=O)=O [sulfamide] | 92 °C |
| Oc1ccc(-c2ccccc2)cc1 [4-phenylphenol] | 166 °C |

| SMILES | melting point |
| --- | --- |
| Nc1ccc(C(F)(F)F)cc1 [4-(trifluoromethyl)aniline] | 7 °C |
| O=C1CN(/N=C/c2ccc([N+](=O)[O-])o2)C(=O)N1 [nitrofurantoin] | 263 °C |
| COc1ccc(C(=O)/C=C/c2ccc(-c3ccccc3[N+](=O)[O-])o2)cc1OC | 120 °C |
| NC(=O)c1ccccc1OC(F)(F)F [2-(trifluoromethoxy)benzamide] | 154 °C |
| CC1(CO)NC(C(=O)O)CC2c3ccccc3NC21 (stereo unspecified) | 260 °C |
| CCOC(=O)c1ccccc1O [ethyl salicylate] | 1 °C |
| OCC(c1ccccc1)c1ccccc1 [2,2-Diphenylethanol] | 54.5 °C |
| O=[N+]([O-])c1ccc(Oc2ccc(C(F)(F)F)cc2[N+](=O)[O-])cc1 [Fluorodifen] | 90 °C |
| CC(C)NCC(O)c1cc(O)cc(O)c1 (stereo unspecified) [metaproterenol] | 100 °C |
| Nc1cccc(Br)c1 [m-bromoaniline] | 17 °C |
| C[Si]1(C)O[Si](C)(C)O[Si](C)(C)O[Si](C)(C)O1 [octamethylcyclotetrasiloxane] | 18 °C |
| c1ccc(-c2nnc(-c3ccccc3)o2)cc1 [2,5-diphenyl-1,3,4-oxadiazole] | 140 °C |
| CC(C)(C)OC(=O)N[C@@H](Cc1ccc(Br)cc1)C(=O)O [N-boc-4-bromo-L-phenylalanine] | 119 °C |
| C[C@]12CC[C@@H]3O[C@@H]3[C@H]1CC[C@@H]1[C@@H]2CC[C@]2(C)C(=O)CC[C@@H]12 [(3beta,4beta,5beta)-3,4-Epoxyandrostan-17-one] | 136 °C |
| COC(=O)/C=C(/C(=O)OC)N(Nc1ccccc1N=Nc1ccccc1)c1ccccc1 | 154 °C |
| OCc1cc(Cl)ccc1O [5-chloro-2-hydroxybenzyl alcohol] | 86 °C |
| CC(C)c1cccc(C(C)C)c1O [2,6-diisopropylphenol] | 18 °C |
| CNN [Methylhydrazine] | -80 °C |
| CCCN(CCC)S(=O)(=O)c1ccc(C(=O)O)cc1 [Probenecid] | 195 °C |
| Oc1ccc2ccccc2c1 [2-naphthol] | 122 °C |
| OC(c1ccccc1)(c1ccccc1)C1CCNCC1 [azacyclonol] | 160 °C |
| CCCCCCCCCCCCCCC(=O)O [pentadecanoic acid] | 53 °C |
| Nc1ccc([N+](=O)[O-])cc1 [4-Nitroaniline] | 148 °C |
| CCCCC(C)CC(O)C=CC1C(O)CC(=O)C1CCCCC=CC(=O)O (stereo unspecified) | 97 °C |
| Nc1cc(Br)ccc1C(O)c1ccccc1 (stereo unspecified) [(2-amino-4-bromophenyl)(phenyl)methanol] | 113 °C |

Continued, values first:

| melting point | SMILES |
| --- | --- |
| 155 °C | C(=Cc1ccccc1)Cc1ccccc1 [benzene, 1,1'-(1-propene-1,3-diyl)bis-] |
| 89 °C | c1ccc(CCc2ccc(CCc3ccccc3)cc2)cc1 [1,4-bis(2-phenylethyl)benzene] |
| 138 °C | CC1(C)OC(C)(C(O)(Cc2ccccc2)Cc2ccccc2)CCC1C(=O)O (stereo unspecified) |
| -130 °C | CCCCC [Pentane] |
| -130 °C | CCCCC [pentane] |
| 210 °C | Nc1ccn([C@@H]2O[C@H](CO)[C@@H](O)[C@H]2O)c(=O)n1 [Cytidine] |
| 272 °C and 274 °C | Cn1c(=O)c2[nH]cnc2n(C)c1=O [theophylline] |
| 145 °C | COc1ccc(C(=O)/C=C/c2ccc(-c3ccccc3OC)o2)cc1OC |
| 280 °C | C[C@H](N)C(=O)N[C@@H](C)C(=O)O [L-Alanyl-L-alanine] |
| 164 °C | O=C(CO)[C@H](O)[C@@H](O)[C@H](O)CO [D-sorbose] |
| 10 °C | O=[N+]([O-])c1ccc(F)cc1F [2,4-difluoro-1-nitrobenzene] |
| 46 °C | O=C(c1ccccc1)c1ccccc1Cl [2-chlorobenzophenone] |
| 8 °C | O=Cc1cccnc1 [pyridine-3-carboxaldehyde] |
| 138 °C | CC(=O)Oc1ccccc1C(=O)O [aspirin] |
| 130 °C | O=C1CC(=O)c2ccccc21 [1,3-indanedione] |
| -27 °C | OCCc1ccccc1 [2-Phenyl-Ethanol] |
| 121 °C | N#Cc1ccncc1I [4-cyano-3-iodopyridine] |
| 4 °C | CC1(C)C(=O)[C@]2(C)CC[C@H]1C2 [fenchone] |
| 62 °C | C1CCCCCCCCCCCCCC1 [cyclopentadecane] |
| 43 °C | Cc1ccc(I)cc1 [p-iodotoluene] |
| -68 °C | CC(C)(C)N [2-amino-2-methylpropane] |
| -43 °C | CCOC(=O)OCC [diethyl carbonate] |
| 33 °C | CCCCCCCCCCCCCCCCCCC [N-nonadecane] |
| -157 °C | CC[SiH](CC)CC [triethylsilane] |
| 206 °C | CC1C(=O)CCCC1=O [2-methylcyclohexane-1,3-dione] |
| 233 °C | O=C1NN(c2ccccc2)C(=O)C1c1ccccc1 (stereo unspecified) [phenopyrazone] |
